Measured values from paper PMC4992173, “Divergent synthesis and identification of the cellular targets of deoxyelephantopins” (Nature Communications, 2016).

System: Caco-2 cells
Test: In situ global proteomics profiling of Caco-2 cells (LC-MS/MS, LFQ)
Format: cell-based, human
Conditions: for Log2 20 µM DEP/DMSO: LFQ
Method: Figure 7 Identification of PPARγ as target of deoxyelephantopin and screening of DEP derivatives as PPARγ antagonists. (a) Quantification of endogenous PPARγ enriched from Caco-2 cells using 10 μM 24c following in situ treatment with DEP (20 μM) or DMSO (normalized LFQ values±s.d. are shown; n=6). (b) Changes in expression levels of five PPARγ-dependent proteins following 24 h treatment of Caco-2 cells with DMSO, rosiglitazone (10 μM), T0070907 (50 μM) or DEP (20 μM; LFQ ratios±s.d. are shown; n=3). **P<0.005 and ***P<0.0005 by two-sided Student's t-test. (c) Gel-based competitive screening of DEP and analogues as PPARγ antagonists against recombinant human enzyme (top). hPPARγ was treated with each compound (20 μM) for 1 h followed by treatment with 24c-Cy3 (10 μM) as probe. Quantification of fluorescence intensity in the competitive screening for PPARγ antagonists (bottom; values±s.d. are shown; n=3).
Caco-2 cells were treated with DMSO, PPARγ agonist rosiglitazone, antagonist T0070907 or DEP for 24 h, the cells were collected and the proteomes were comparatively analysed by LC–MS/MS. […] Furthermore, the list of 43 dysregulated proteins was analysed and classified using the GOrilla pathway analysis tool (Supplementary Fig. 15). […]
In situ global proteomics profiling using LC-MS/MS. Caco- ’ cells/mL) in a 6-well plate, allowed to grow to confluence and to differentiate for 28 days. The wells were washed one time with PBS and treated with either DMSO, 10 µM rosiglitazone, 50 µM T0070907 or 20 µM DEP for 24 hours. Cells were washed two times with PBS and lysates were prepared. Samples (30 µg) were denatured with 6 M urea in 50 mM NH4HCO3, reduced […]
dark. Samples were diluted to 2 M urea with 50 mM NH4HCO3, and digested with trypsin ([…] for 12 hours at 37 °C. Samples were acidified to a final concentration of 5% acetic acid, desalted over a self-packed C18 spin column and […]
dried. […]
LC-MS/MS analysis. Peptides were resuspended in water with 0.1% formic acid (FA) and analyzed using Proxeon EASY-nLC 1000 nano-UHPLC coupled to QExactive Plus Quadrupole-Orbitrap mass spectrometer (Thermo Scientific). The chromatography column […]
H2O (Buffer A) and 0.1% FA in MeCN (Buffer B). Peptides were eluted into the mass spectrometer at a flow rate of 300 nL/min. over a 240 min. linear gradient (3-35% Buffer B) at 50 °C. Data was acquired in data-dependent mode (top- N = ’ […]
and isotope exclusion was enabled.
MaxQuant analysis. The MS data was analyzed with MaxQuant (V1.5.2.8) and searched against the human proteome (Uniprot, 89,649 entries) and a common list of contaminants (included in MaxQuant). The first peptide search tolerance was set to 20 ppm, 10 ppm was used for the main peptide search and fragment mass tolerance was set to 0.02 Da. The false discovery rate for peptides, proteins and sites identification was set to 1%. The minimum peptide length was set to 6 amino acids and peptide re-quantification, label-free quantification (MaxLFQ) and “ ” were enabled. The minimal number of peptides per protein was set to two. Oxidized methionines and N-terminal acetylation were searched as variable modifications and carbamidomethylation of cysteines was searched as a fixed modification. For SILAC experiments 13C6 L-lysine and 13C6 15N4 L-arginine were set as heavy isotope labels and 12C6 L-lysine and 12C6 14N4 L-arginine as light isotope labels.
19 d k g h ARγ. 19a was covalently docked to the crystal structure of human γ ZU 190 using the GOLD suite (V5.3, CCDC). The default GOLD fitness function was used to determine the best binding configuration. The distance for hydrogen bonding was set to 3 Å.
IAA competition of 23c, 24c and DEP h ARγ. γ
(500 ng in 9 µL PBS) was treated with either 100 µM DEP, 23c, 24c or DMSO (1 µL of 10x stock in DMSO) for one hour. Samples were denatured with 6 M urea in 50 mM NH4HCO3, […]
in the dark. Samples were diluted to 2 M urea with 50 mM NH4HCO3, and digested with trypsin […]

## C=C(C)C(=O)O[C@H]1CC2=C[C@@H](C/C(C)=C/[C@H]3OC(=O)C(=C)[C@H]13)OC2=O [deoxyelephantopin]
20 µM, 24 h, compared with rosiglitazone and T0070907
  mode of action on PPARγ in cells: antagonist of PPARγ
Protein ALDH3B1, 24 h
  Log2 20 µM DEP/DMSO: -0.67
Protein ARHGAP17, 24 h
  Log2 20 µM DEP/DMSO: -0.97
Protein ARMCX3, 24 h
  Log2 20 µM DEP/DMSO: -0.92
Protein COL4A3BP, 24 h
  Log2 20 µM DEP/DMSO: -0.76
Protein CROT, 24 h
  Log2 20 µM DEP/DMSO: -0.68
Protein CTBP2, 24 h
  Log2 20 µM DEP/DMSO: 0.72
Protein DDX21, 24 h
  Log2 20 µM DEP/DMSO: 0.82
Protein FNTA, 24 h
  Log2 20 µM DEP/DMSO: -0.62
Protein GID8, 24 h
  Log2 20 µM DEP/DMSO: 0.68
Protein GIPC2, 24 h
  Log2 20 µM DEP/DMSO: -0.69
Protein GIT2, 24 h
  Log2 20 µM DEP/DMSO: -0.92
Protein GSTA1, 24 h
  Log2 20 µM DEP/DMSO: -0.81
Protein GSTA2, 24 h
  Log2 20 µM DEP/DMSO: -0.87
Protein GSTM3, 24 h
  Log2 20 µM DEP/DMSO: -0.84
Protein HIGD1A, 24 h
  Log2 20 µM DEP/DMSO: 0.69
Protein IREB2, 24 h
  Log2 20 µM DEP/DMSO: 0.65
Protein ITGB4, 24 h
  Log2 20 µM DEP/DMSO: 0.92
Protein LDHD, 24 h
  Log2 20 µM DEP/DMSO: -0.60
Protein LDLR, 24 h
  Log2 20 µM DEP/DMSO: 1.72
Protein LIPA, 24 h
  Log2 20 µM DEP/DMSO: -0.68
Protein MARCH5, 24 h
  Log2 20 µM DEP/DMSO: 1.85
Protein MGMT, 24 h
  Log2 20 µM DEP/DMSO: -0.81
Protein MYO15B, 24 h
  Log2 20 µM DEP/DMSO: -1.00
Protein NOP9, 24 h
  Log2 20 µM DEP/DMSO: 1.57
Protein OAS1, 24 h
  Log2 20 µM DEP/DMSO: 1.10
Protein OGDHL, 24 h
  Log2 20 µM DEP/DMSO: -0.98
Protein PANK4, 24 h
  Log2 20 µM DEP/DMSO: -0.81
Protein PHPT1, 24 h
  Log2 20 µM DEP/DMSO: -0.79
Protein PSIP1, 24 h
  Log2 20 µM DEP/DMSO: 0.76
Protein RAB5B, 24 h
  Log2 20 µM DEP/DMSO: 0.79
Protein RBP4, 24 h
  Log2 20 µM DEP/DMSO: -1.03
Protein RRS1, 24 h
  Log2 20 µM DEP/DMSO: 0.65
Protein SAMHD1, 24 h
  Log2 20 µM DEP/DMSO: -0.97
Protein SCAMP3, 24 h
  Log2 20 µM DEP/DMSO: 0.63
Protein SETDB1, 24 h
  Log2 20 µM DEP/DMSO: 0.81
Protein SLC26A3, 24 h
  Log2 20 µM DEP/DMSO: -0.98
Protein SLC39A14, 24 h
  Log2 20 µM DEP/DMSO: -0.74
Protein STK4, 24 h
  Log2 20 µM DEP/DMSO: -0.74
Protein SURF6, 24 h
  Log2 20 µM DEP/DMSO: 1.30
Protein TGOLN2, 24 h
  Log2 20 µM DEP/DMSO: 1.03
Protein TPD52L1, 24 h
  Log2 20 µM DEP/DMSO: -0.71
Protein TTR, 24 h
  Log2 20 µM DEP/DMSO: -0.97
Protein VPS52, 24 h
  Log2 20 µM DEP/DMSO: 0.63
